Experiments:
velvetleaf [1] = test: Test Example 4: herbicidal effect by soil treatment (Table 19, symbol M); type: in vivo, velvetleaf (Abutilon theophrasti); conditions: amount of applied herbicide 320 g/ha
Outline: (§1)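 Three weeks of greenhouse growth at 25° C. to 30° C. followed a uniform surface spray of water-diluted emulsion at a predetermined herbicide amount. Seeds had been sown beforehand under about 1.5 cm of sterilized diluvial soil. Grading followed criteria set out in an earlier test.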

redroot pigweed [2] = test: Test Example 4: herbicidal effect by soil treatment (Table 19, symbol N); type: in vivo, redroot pigweed (Amaranthus retroflexus); conditions: amount of applied herbicide 320 g/ha
Outline: as §1

southern crabgrass [3] = test: Test Example 4: herbicidal effect by soil treatment (Table 19, symbol F); type: in vivo, southern crabgrass (Digitaria ciliaris); conditions: amount of applied herbicide 320 g/ha
Outline: as §1

blackgrass [4] = test: Test Example 5: herbicidal effect by foliage application, plastic box (Table 20, symbol J); type: in vivo, blackgrass (Alopecurus myosuroides); conditions: foliage application, 320 g/ha
Outline: (§2)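 Plants sown in sterilized diluvial soil and grown 14 days in a greenhouse at 25° C to 30° C, then sprayed on the foliage with the compound's emulsion diluted in water to a predetermined herbicide amount. Injury to weeds and crops scored three weeks after application on a visual rating scale.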

redroot pigweed [5] = test: Test Example 5: herbicidal effect by foliage application, plastic box (Table 20, symbol N); type: in vivo, redroot pigweed (Amaranthus retroflexus); conditions: foliage application, 320 g/ha, evaluated three weeks after application
Outline: as §2

green foxtail [6] = test: Test Example 5: herbicidal effect by foliage application, plastic box (Table 20, symbol G); type: in vivo, green foxtail (Setaria viridis); conditions: foliage application, 320 g/ha
Outline: as §2

green foxtail [7] = test: Test Example 4: herbicidal effect by soil treatment (Table 19, symbol G); type: in vivo, green foxtail (Setaria viridis); conditions: amount of applied herbicide 320 g/ha
Outline: as §1

velvetleaf [8] = test: Test Example 5: herbicidal effect by foliage application, plastic box (Table 20, symbol M); type: in vivo, velvetleaf (Abutilon theophrasti); conditions: foliage application, 320 g/ha
Outline: as §2

chickweed [9] = test: Test Example 5: herbicidal effect by foliage application, plastic box (Table 20, symbol P); type: in vivo, common chickweed (Stellaria media); conditions: foliage application, 320 g/ha, evaluated three weeks after application
Outline: as §2

barnyard grass [10] = test: Test Example 5: herbicidal effect by foliage application, plastic box (Table 20, symbol H); type: in vivo, barnyard grass (Echinochloa crus-galli); conditions: foliage application, 320 g/ha
Outline: as §2

Italian ryegrass [11] = test: Test Example 5: herbicidal effect by foliage application, plastic box (Table 20, symbol K); type: in vivo, Italian ryegrass (Lolium multiflorum); conditions: foliage application, 320 g/ha
Outline: as §2

wild oat [12] = test: Test Example 5: herbicidal effect by foliage application, plastic box (Table 20, symbol I); type: in vivo, wild oat (Avena fatua); conditions: foliage application, 320 g/ha
Outline: as §2

chickweed [13] = test: Test Example 4: herbicidal effect by soil treatment (Table 19, symbol P); type: in vivo, common chickweed (Stellaria media); conditions: amount of applied herbicide 320 g/ha
Outline: as §1

lambsquarters [14] = test: Test Example 5: herbicidal effect by foliage application, plastic box (Table 20, symbol O); type: in vivo, lambsquarters (Chenopodium album); conditions: foliage application, 320 g/ha
Outline: as §2

lambsquarters [15] = test: Test Example 4: herbicidal effect by soil treatment (Table 19, symbol O); type: in vivo, lambsquarters (Chenopodium album); conditions: amount of applied herbicide 320 g/ha
Outline: as §1

blackgrass [16] = test: Test Example 4: herbicidal effect by soil treatment (Table 19, symbol J); type: in vivo, blackgrass (Alopecurus myosuroides); conditions: amount of applied herbicide 320 g/ha
Outline: as §1

false cleavers [17] = test: Test Example 5: herbicidal effect by foliage application, plastic box (Table 20, symbol Q); type: in vivo, false cleavers (Galium spurium); conditions: foliage application, 320 g/ha
Outline: as §2

windgrass [18] = test: Test Example 4: herbicidal effect by soil treatment (Table 19, symbol L); type: in vivo, windgrass (Apera spica-venti); conditions: amount of applied herbicide 320 g/ha
Outline: as §1

southern crabgrass [19] = test: Test Example 5: herbicidal effect by foliage application, plastic box (Table 20, symbol F); type: in vivo, southern crabgrass (Digitaria ciliaris); conditions: foliage application, 320 g/ha
Outline: as §2

barnyard grass [20] = test: Test Example 4: herbicidal effect by soil treatment (Table 19, symbol H); type: in vivo, barnyard grass (Echinochloa crus-galli); conditions: amount of applied herbicide 320 g/ha
Outline: as §1

wild oat [21] = test: Test Example 4: herbicidal effect by soil treatment (Table 19, symbol I); type: in vivo, wild oat (Avena fatua); conditions: amount of applied herbicide 320 g/ha
Outline: as §1

persian speedwell [22] = test: Test Example 5: herbicidal effect by foliage application, plastic box (Table 20, symbol R); type: in vivo, Persian speedwell (Veronica persica); conditions: foliage application, 320 g/ha
Outline: as §2

windgrass [23] = test: Test Example 5: herbicidal effect by foliage application, plastic box (Table 20, symbol L); type: in vivo, windgrass (Apera spica-venti); conditions: foliage application, 320 g/ha
Outline: as §2

false cleavers [24] = test: Test Example 4: herbicidal effect by soil treatment (Table 19, symbol Q); type: in vivo, false cleavers (Galium spurium); conditions: amount of applied herbicide 320 g/ha
Outline: as §1

Italian ryegrass [25] = test: Test Example 4: herbicidal effect by soil treatment (Table 19, symbol K); type: in vivo, Italian ryegrass (Lolium multiflorum); conditions: amount of applied herbicide 320 g/ha
Outline: as §1

barnyard grass [26] = test: Test Example 3: herbicidal effect by foliage application, Wagner pot (Table 18, symbol H); type: in vivo, barnyard grass (Echinochloa crus-galli); conditions: 320 g/ha
Outline: (§3)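 Plants were sown in alluvial soil held under 0.1–0.5 cm standing water and grown 14 days in a greenhouse at 25–30 °C. An emulsifiable formulation, water-diluted to the set dose, was then sprayed onto the foliage, and effects were scored three weeks later using previously defined criteria.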

rice flat sedge = test: Test Example 3: herbicidal effect by foliage application, Wagner pot (Table 18, symbol E); type: in vivo, rice flat sedge (Cyperus iria); conditions: 320 g/ha
Outline: as §3

persian speedwell [27] = test: Test Example 4: herbicidal effect by soil treatment (Table 19, symbol R); type: in vivo, Persian speedwell (Veronica persica); conditions: amount of applied herbicide 320 g/ha
Outline: as §1

Chinese sprangletop = test: Test Example 3: herbicidal effect by foliage application, Wagner pot (Table 18, symbol D); type: in vivo, chinese sprangletop (Leptochloa chinensis); conditions: 320 g/ha
Outline: as §3

[28] = evaluated three weeks after application

COc1cccc(OC)c1-c1sc2ccc(Cl)cc2c1-c1c(O)c(C)nn(C)c1=O [2-121]
M: velvetleaf, herbicidal effect rating (velvetleaf [1]): 0 (Herbicidal rate of 5% or less (almost no effect)) | N: redroot pigweed, herbicidal effect rating (redroot pigweed [2]): 0 (Herbicidal rate of 5% or less (almost no effect)) | F: southern crabgrass, herbicidal effect rating (southern crabgrass [3]): 0 (Herbicidal rate of 5% or less (almost no effect)) | herbicidal effect on J: blackgrass (blackgrass [4]; [28]): 0 (Herbicidal rate of 5% or less (almost no effect)) | herbicidal effect on N: redroot pigweed (redroot pigweed [5]): 0 (Herbicidal rate of 5% or less (almost no effect)) | herbicidal effect on G: green foxtail (green foxtail [6]; [28]): 0 (Herbicidal rate of 5% or less (almost no effect)) | G: green foxtail, herbicidal effect rating (green foxtail [7]): 0 (Herbicidal rate of 5% or less (almost no effect)) | herbicidal effect on M: velvetleaf (velvetleaf [8]; [28]): 0 (Herbicidal rate of 5% or less (almost no effect)) | herbicidal effect on P: chickweed (chickweed [9]): 3 (Herbicidal rate of 40% or more and less than 70%) | herbicidal effect on H: barnyard grass (barnyard grass [10]; [28]): 0 (Herbicidal rate of 5% or less (almost no effect)) | herbicidal effect on K: Italian ryegrass (Italian ryegrass [11]; [28]): 0 (Herbicidal rate of 5% or less (almost no effect)) | herbicidal effect on I: wild oat (wild oat [12]; [28]): 0 (Herbicidal rate of 5% or less (almost no effect)) | P: chickweed, herbicidal effect rating (chickweed [13]): 3 (Herbicidal rate of 40% or more and less than 70%) | herbicidal effect on O: lambsquarters (lambsquarters [14]; [28]): 0 (Herbicidal rate of 5% or less (almost no effect)) | O: lambsquarters, herbicidal effect rating (lambsquarters [15]): 0 (Herbicidal rate of 5% or less (almost no effect)) | J: blackgrass, herbicidal effect rating (blackgrass [16]): 0 (Herbicidal rate of 5% or less (almost no effect)) | herbicidal effect on Q: false cleavers (false cleavers [17]; [28]): 2 (Herbicidal rate of 20% or more and less than 40%) | L: windgrass, herbicidal effect rating (windgrass [18]): 0 (Herbicidal rate of 5% or less (almost no effect)) | herbicidal effect on F: southern crabgrass (southern crabgrass [19]; [28]): 0 (Herbicidal rate of 5% or less (almost no effect)) | H: barnyard grass, herbicidal effect rating (barnyard grass [20]): 0 (Herbicidal rate of 5% or less (almost no effect)) | I: wild oat, herbicidal effect rating (wild oat [21]): 0 (Herbicidal rate of 5% or less (almost no effect)) | herbicidal effect on R: persian speedwell (persian speedwell [22]; [28]): 0 (Herbicidal rate of 5% or less (almost no effect)) | herbicidal effect on L: windgrass (windgrass [23]; [28]): 0 (Herbicidal rate of 5% or less (almost no effect)) | Q: false cleavers, herbicidal effect rating (false cleavers [24]): 0 (Herbicidal rate of 5% or less (almost no effect)) | K: Italian ryegrass, herbicidal effect rating (Italian ryegrass [25]): 0 (Herbicidal rate of 5% or less (almost no effect))

COc1cc2sc(-c3ccccc3OC)c(-c3c(O)c(C)nn(C)c3=O)c2cc1OC [5-059]
M: velvetleaf, herbicidal effect grade (velvetleaf [1]): 0 (Herbicidal rate of 5% or less (almost no effect)) | herbicidal effect on barnyard grass (H) (barnyard grass [26]): 5 (Herbicidal rate of 90% or more (almost completely withered)) | N: redroot pigweed, herbicidal effect grade (redroot pigweed [2]): 0 (Herbicidal rate of 5% or less (almost no effect)) | F: southern crabgrass, herbicidal effect grade (southern crabgrass [3]): 0 (Herbicidal rate of 5% or less (almost no effect)) | herbicidal effect on blackgrass (J) (blackgrass [4]; three weeks after application): 5 (Herbicidal rate of 90% or more (almost completely withered)) | herbicidal effect on rice flat sedge (E) (rice flat sedge): 4 (Herbicidal rate of 70% or more and less than 90%) | herbicidal effect on green foxtail (G) (green foxtail [6]; three weeks after application): 4 (Herbicidal rate of 70% or more and less than 90%) | G: green foxtail, herbicidal effect grade (green foxtail [7]): 0 (Herbicidal rate of 5% or less (almost no effect)) | herbicidal effect on velvetleaf (M) (velvetleaf [8]; three weeks after application): 3 (Herbicidal rate of 40% or more and less than 70%) | R: persian speedwell, herbicidal effect grade (persian speedwell [27]): 0 (Herbicidal rate of 5% or less (almost no effect)) | herbicidal effect on Chinese sprangletop (D) (Chinese sprangletop): 3 (Herbicidal rate of 40% or more and less than 70%) | herbicidal effect on barnyard grass (H) (barnyard grass [10]; three weeks after application): 3 (Herbicidal rate of 40% or more and less than 70%) | herbicidal effect on Italian ryegrass (K) (Italian ryegrass [11]; three weeks after application): 4 (Herbicidal rate of 70% or more and less than 90%) | herbicidal effect on wild oat (I) (wild oat [12]; three weeks after application): 4 (Herbicidal rate of 70% or more and less than 90%) | P: chickweed, herbicidal effect grade (chickweed [13]): 0 (Herbicidal rate of 5% or less (almost no effect)) | herbicidal effect on lambsquarters (O) (lambsquarters [14]; three weeks after application): 4 (Herbicidal rate of 70% or more and less than 90%) | O: lambsquarters, herbicidal effect grade (lambsquarters [15]): 0 (Herbicidal rate of 5% or less (almost no effect)) | J: blackgrass, herbicidal effect grade (blackgrass [16]): 3 (Herbicidal rate of 40% or more and less than 70%) | herbicidal effect on false cleavers (Q) (false cleavers [17]; three weeks after application): 0 (Herbicidal rate of 5% or less (almost no effect)) | L: windgrass, herbicidal effect grade (windgrass [18]): 3 (Herbicidal rate of 40% or more and less than 70%) | herbicidal effect on southern crabgrass (F) (southern crabgrass [19]; three weeks after application): 4 (Herbicidal rate of 70% or more and less than 90%) | H: barnyard grass, herbicidal effect grade (barnyard grass [20]): 0 (Herbicidal rate of 5% or less (almost no effect)) | I: wild oat, herbicidal effect grade (wild oat [21]): 0 (Herbicidal rate of 5% or less (almost no effect)) | herbicidal effect on persian speedwell (R) (persian speedwell [22]; three weeks after application): 4 (Herbicidal rate of 70% or more and less than 90%) | herbicidal effect on windgrass (L) (windgrass [23]; three weeks after application): 4 (Herbicidal rate of 70% or more and less than 90%) | Q: false cleavers, herbicidal effect grade (false cleavers [24]): 0 (Herbicidal rate of 5% or less (almost no effect)) | K: Italian ryegrass, herbicidal effect grade (Italian ryegrass [25]): 4 (Herbicidal rate of 70% or more and less than 90%)

— patent US20230085307A1, “PYRIDAZINONE COMPOUND AND HERBICIDE” (NISSAN CHEMICAL CORPORATION, priority 2019, published 2023)
